The numbers were not newly measured in patent US10434213B2, “Controlled delivery system” (Wake Forest University Health Sciences, priority 2010, dated 2019), which cites them from elsewhere.

Values after ≈ are worked out from the molar mass of the structure shown.

For one data set, the system named is tumor cells. As to conditions: in vitro.
Data set [1] has as its system IL-1, IL-2, TNF, GM-CSF and interferons. The following applies: Newton 1989; Olden 1991.
Another data set relates to bone marrow. The following applies: White and Olden 1991.
The subject of data set [2] is colon cancer and melanoma cancers. The following applies: combined with interferon, in vivo.
A further data set has as its system S. aureus 29213. The following applies: reported value.

Turning to `O[C@H]1[C@H]2[C@H](O)CCCN2C[C@H]1O` [Swainsonine], the “B- and T-cell immunity, natural killer T-cell and macrophage-induced destruction of tumor cells” value in the data set with tumor cells is listed as “induces”. Also, the “Production of multiple cytokines” value in data set [1] is on record as “stimulates”. In the data set on bone marrow, the Bone marrow proliferation result is given as “capacity to stimulate bone marrow proliferation”. In addition, the Anti-tumor activity result in data set [2] is given as “direct anti-tumor activity”.

As to `O=C(O)c1cn(C2CC2)c2cc(N3CCNCC3)c(F)cc2c1=O` [ciprofloxacin], the “Minimum inhibitory concentration (MIC)” value with S. aureus 29213 is 0.25 µg/mL (≈ 0.754 µM).
